From publication PMC10721898, “C5 methylation confers accessibility, stability and selectivity to picrotoxinin” (Nature Communications, 2023)
Read-outs that look alike come from different tables or passages of the source.

Assays:
Drosophila RDL = biological target: T1, Drosophila RDL (Drosophila melanogaster, UniProt P25123); test: RDL receptors assay: two-electrode voltage clamp electrophysiology in Xenopus oocytes; assay type: cell-based
T1 construct: expressed in transfected cells; host or cells: Xenopus oocytes (Ecocyte, Austin, TX) microinjected with capped cRNA
T1 sequence (P25123 45-606): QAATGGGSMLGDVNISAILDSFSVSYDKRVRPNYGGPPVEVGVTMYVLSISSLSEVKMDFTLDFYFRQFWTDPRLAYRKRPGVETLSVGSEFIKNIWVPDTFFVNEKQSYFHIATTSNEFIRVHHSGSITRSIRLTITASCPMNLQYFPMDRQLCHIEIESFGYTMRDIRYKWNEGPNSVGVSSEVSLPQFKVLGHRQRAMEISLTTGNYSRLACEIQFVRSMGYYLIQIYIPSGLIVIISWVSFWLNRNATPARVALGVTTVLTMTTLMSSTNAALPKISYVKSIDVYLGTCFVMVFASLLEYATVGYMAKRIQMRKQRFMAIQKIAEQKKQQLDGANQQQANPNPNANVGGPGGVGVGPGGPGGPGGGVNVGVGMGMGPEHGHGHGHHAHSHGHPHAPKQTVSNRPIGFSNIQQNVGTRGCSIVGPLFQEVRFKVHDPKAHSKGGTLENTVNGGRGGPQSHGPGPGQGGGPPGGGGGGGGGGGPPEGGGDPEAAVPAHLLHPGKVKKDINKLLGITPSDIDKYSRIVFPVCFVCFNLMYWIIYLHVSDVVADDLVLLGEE
Protocol: 5. RDL receptors binding assay
The Drosophila RDL sequence (NP_01261616.1) was cloned into the pGH19 backbone via Gibson assembly for capped cRNA synthesis using the T7 mMessage mMachine kit (Invitrogen). cRNA samples were stored at - 80 °C until use. Ready to inject Xenopus oocytes were obtained from Ecocyte (Austin, TX) and microinjected using a Nanoinject III (Drummond Scientific) with 4 nL of cRNA (1 μg/μL). The oocytes were then incubated at 16 °C in ND96 storage solution (93.5 mM NaCl, 2 mM KCl, 1.8 mM CaCl 2·2H2O, 2 mM MgCl 2·6H2O, 5 mM HEPES at pH 7.5). Recording were made 1 -6 days post injection.
Electrophysiology experiments were performed using an automated two -electrode voltage clamp set -up (Roboocyte 2, Mutlichannel Systems). Recording head were filled with 3M KCl and gave resistan ce of 100-2000 kΩ in medium. Membrane potential was held at -60 mV and current signal was sampled at 20 kHz.
Experiments were performed at room temperature using Modified Barth’s Saline (MBS) (88 mM NaCl, 1 mM KCl, 2.4 mM NaHCO 3, 15 mM HEPES, 0.3 mM Ca(NO3)2, 0.41 mM CaCl 2, and 0.82 mM MgSO 4·7H2O at pH 7.4). Oocytes were perfused with MBS at 5 mL/min in all assays. GABA and all compounds were dissolved in MBS and a 0.1% DMSO negative control was utilized to correct for any solvent effect.
Initial block potential of each compound was assessed utilizing a pre -incubation method (MBS (30 sec), 10 μM GABA (15 sec), MBS wash (60 sec), compound (60 sec), compound + 10 μM GABA (15 sec), compound (60 sec), compound + 10 μM GABA (15 sec), MBS wash (60 sec) with 10 μM of each test compound. The maximum signal of the second co -application was compared to the initial GABA response to determine the % block and then standardized against the corresponding value of the 0.1% DMSO control. Dose responses were performed for any compound showing >50% block in the initial test using 10, 1, and 0.1 μM. The IC50 values were fit using an inhibitor vs response 4 -parameter fit (GraphPad Prism 8.1.2).
Supplementary Table 9. IC50 values of test compound
(§1) Compound IC50 (µM) Compound IC50 (µΜ)

rat GABAA ion channel = test: Non-selective rat GABAA ion channel [3H]TBOB binding (antagonist radioligand) assay, rat cerebral cortex; conditions: [3H]TBOB displacement, n = 1
Protocol: The structurally privileged 5-methyl series was assayed for binding to both GABAA receptors (rat cortex membrane preparations) and RDL (expressed in Xenopus oocytes) and compared directly to the parent PXN (C5-H) series. The parallel series of PXN and 5MePXN analogs allowed us to interrogate the effect of the synthetically-enabling and stabilizing C5 methyl. […]
4. Rat GABAA receptors binding assay
Non-selective rat GABAA ion channel [3H] TBOB binding (Antagonist Radioligand) assay was conducted by Eurofins Pharma Discovery Service of Eurofins Cerep, France.
Compound binding was calculated as a % inhibition of the binding of the radioactive ly labeled ligand [3H] TBOB (t‐[3H]Butylbicycloorthobenzoate) for rat GABAA ion channels.9 A 20.0 mM stock solution was prepared in DMSO from each test compound to evaluate radioligand displacement of [3H] TBOB from rat cerebral cortex GABAA receptors at different concentrations.
The results are expressed as a percent of control specific binding measured specific binding*100 […]
and as a percent inhibition of control specific binding
100 − (measured specific binding*100) […]
obtained in the presence of the test compounds.
The IC50 values (concentration causing a half -maximal inhibition of control specific binding) and Hill coefficients (nH) were determined by non -linear regression analysis of th e competition curves generated with mean replicate values using Hill equation curve fitting […]
where Y = specific binding, A = left asymptote of the curve, D = right asymptote of the curve , C = compound concentration, C 50 = IC50, and nH = slope factor. This analysis was performed using software developed at Cerep (Hill software) and validated by comparison with data generated by th e commercial software SigmaPlot® 4.0 for Windows ® (© 1997 by SPSS Inc.).
The inhibition constants (K i) were calculated using the Cheng Prusoff equation where L = concentration of radioligand in the assay, and KD = affinity of the radioligand for the recept or. A scatchard plot is used to determine the K D.
Supplementary Table 8. IC50 values of test compound
as §1

GABAA and RDL receptors = tested on: GABAA and RDL receptors; design: method as in PMID 8982503; conditions: cited from earlier work
RDL = conditions: cited from earlier work
[1] = block of 10 μM GABA response, pre-incubation, -60 mV, Supplementary Table 9 (PXN series), n = 4, read-out: IC50
[2] = Supplementary Table 8 (PXN series)
[3] = block of 10 μM GABA response, pre-incubation, -60 mV, Supplementary Table 9 (5MePXN series), n = 4, read-out: IC50
[4] = Supplementary Table 8 (5MePXN series)

Molecule	IC50 (Drosophila RDL; [1])	IC50 (rat GABAA ion channel; [2])	IC50 (Drosophila RDL; [3])	IC50 (rat GABAA ion channel; [4])	also measured
CC(C)(O)C1C2OC(=O)C1C1(F)CC3OC34C(=O)OC2C14C (stereo not shown) [6FPTN]	4920 nM	56000 nM			
CC(C)C1C2OC(=O)C1C1(F)CC3OC34C(=O)OC2C14C (stereo not shown) [6FHPXN]	561 nM	6500 nM			
CC(C)(O)C1C2OC(=O)C1(C)C1(O)CC3OC34C(=O)OC2C41C (stereo not shown) [5MePTN]			> 10000 nM	> 200000 nM	
CC(C)(F)C1C2OC(=O)C1C1(F)CC3OC34C(=O)OC2C14C (stereo not shown) [6F12FPXN]	2240 nM	32000 nM			
CC(C)(F)C1C2OC(=O)C1(C)C1(O)CC3OC34C(=O)OC2C41C (stereo not shown) [12F5MePXN]			> 10000 nM	100000 nM	
CC(C)(C)C1C2OC(=O)C1C1(O)CC3OC34C(=O)OC2C14C (stereo not shown) [12MePXN]	676 nM	310 nM			
C=C(C)C1C2OC(=O)C1(C)C1(O)CC=C3C(=O)OC2C31C (stereo not shown) [8,9do5MePXN]			4410 nM	9200 nM	
CC(C)(C)C1C2OC(=O)C1(C)C1(O)CC3OC34C(=O)OC2C41C (stereo not shown) [12Me5MePXN]			2880 nM	7400 nM	
picrodendrin O					selectivity index over GABAA (GABAA and RDL receptors): 76 fold
CC(C)(O)[C@@H]1[C@H]2OC(=O)[C@@H]1[C@]1(O)C[C@H]3O[C@]34C(=O)O[C@H]2[C@]14C [PTN, picrotin, reference compound]		54000 nM			IC50 (Drosophila RDL): 834 nM; reported activity at RDL (RDL): inactivity
CC(C)(F)C1C2OC(=O)C1(C)C1(F)CC3OC34C(=O)OC2C41C (stereo not shown) [6F12F5MePXN]			994 nM	> 200000 nM	
C=C(C)C1C2OC(=O)C1(C)C1(F)CC3OC34C(=O)OC2C41C (stereo not shown) [6F5MePXN]			593 nM	14000 nM	
C=C(C)C1C2OC(=O)C1C1(O)CC=C3C(=O)OC2C31C (stereo not shown) [8,9doPXN]	2600 nM	550 nM			
CC1(C2C3OC(=O)C2(C)C2(O)CC4OC45C(=O)OC3C52C)CC1 (stereo not shown) [Cyp5MePXN]			1620 nM	7700 nM	
CC(C)C1C2OC(=O)C1(C)C1(F)CC3OC34C(=O)OC2C41C (stereo not shown) [6FH5MePXN]			2740 nM	52000 nM	
C=C(C)C1C2OC(=O)C1C1(F)CC3OC34C(=O)OC2C14C (stereo not shown) [6FPXN]	1050 nM	430 nM			reported activity at RDL (RDL): lose channel blocking ability
CC(C)(F)C1C2OC(=O)C1C1(O)CC3OC34C(=O)OC2C14C (stereo not shown) [12FPXN]	> 10000 nM	5400 nM			
CC(C)C1C2OC(=O)C1C1(O)CC3OC34C(=O)OC2C14C (stereo not shown) [HPXN]		1000 nM			IC50 (Drosophila RDL): 1080 nM
CC(C)(O)C1C2OC(=O)C1(C)C1(F)CC3OC34C(=O)OC2C41C (stereo not shown) [6F5MePTN]			1550 nM	> 200000 nM	
CC(C)C1C2OC(=O)C1(C)C1(O)CC3OC34C(=O)OC2C41C (stereo not shown) [H5MePXN]			> 10000 nM	23000 nM	
CC1(C2C3OC(=O)C2C2(O)CC4OC45C(=O)OC3C25C)CC1 (stereo not shown) [CypPXN]		390 nM			IC50 (Drosophila RDL): 693 nM
